Earlier results on one substance are cited in patent US20170143824A1 (Teva Pharmaceutical Industries, Ltd., priority 2013, published 2017).

The subject of this data set is patients with RRMS. The settings on record: registration trials, compared with placebo.

With “L-glutamic acid polymer with L-alanine, L-lysine, L-tyrosine, acetate (salt) [glatiramer acetate]”, the “reduction of relapse rate” value is recorded as “about one third”.
